Values after ≈ are worked out from the molar mass of the structure shown.
Key:
Staphylococcus aureus [1] = assay: Antimicrobial activity against methicillin-resistant Staphylococcus aureus clinical isolate 4 assessed as inhibition of visible bacterial growth incubated for 18 hrs by CLSI based analysis; assay type: functional
Enterococcus faecalis = assay: Antimicrobial activity against Enterococcus faecalis ATCC 19433 assessed as inhibition of visible bacterial growth incubated for 18 hrs by CLSI based analysis; assay type: functional
Staphylococcus aureus [2] = assay: Antimicrobial activity against methicillin-resistant Staphylococcus aureus clinical isolate 3 assessed as inhibition of visible bacterial growth incubated for 18 hrs by CLSI based analysis; assay type: functional
Candida albicans = assay: Antifungal activity against Candida albicans assessed as reduction in fungal growth incubated for 18 hrs by CLSI based analysis; assay type: functional
Staphylococcus aureus [3] = assay: Antimicrobial activity against methicillin-resistant Staphylococcus aureus ATCC 43300 assessed as inhibition of visible bacterial growth incubated for 18 hrs by CLSI based analysis; assay type: functional
[4] = test system: Staphylococcus epidermidis; assay: Antimicrobial activity against Staphylococcus epidermidis ATCC 12228 assessed as inhibition of visible bacterial growth incubated for 18 hrs by CLSI based analysis; assay type: functional
Escherichia coli = assay: Antimicrobial activity against Escherichia coli assessed as inhibition of visible bacterial growth incubated for 18 hrs by CLSI based analysis; assay type: functional
Bacillus subtilis = assay: Antimicrobial activity against Bacillus subtilis ATCC 23875 assessed as inhibition of visible bacterial growth incubated for 18 hrs by CLSI based analysis; assay type: functional
Enterococcus faecium = assay: Antimicrobial activity against vancomycin-resistant Enterococcus faecium assessed as inhibition of visible bacterial growth incubated for 18 hrs by CLSI based analysis; assay type: functional
[5] = Hemolytic activity against mouse Red blood cell incubated for 1 hr; assay type: toxicity, cell-based; conditions: erythrocyte
Enterococcus gallinarum = assay: Antimicrobial activity against Enterococcus gallinarum ATCC 49573 assessed as inhibition of visible bacterial growth incubated for 18 hrs by CLSI based analysis; assay type: functional
[6] = Therapeutic index, ratio of HC5 for hemolytic activity in mouse Red blood cell to MIC for antimicrobial activity against Staphylococcus aureus ATCC 25923 assessed as inhibition of visible bacterial growth; assay type: toxicity, cell-based, RBC; conditions: red blood cells, read-out: TI
Staphylococcus aureus [7] = assay: Antimicrobial activity against Staphylococcus aureus ATCC 25923 assessed as inhibition of visible bacterial growth incubated for 18 hrs by CLSI based analysis; assay type: functional
Staphylococcus aureus [8] = assay: Antimicrobial activity against Staphylococcus aureus assessed as inhibition of visible bacterial growth incubated for 18 hrs by CLSI based analysis; assay type: functional
Staphylococcus aureus [9] = assay: Antimicrobial activity against methicillin-resistant Staphylococcus aureus clinical isolate 2 assessed as inhibition of visible bacterial growth incubated for 18 hrs by CLSI based analysis; assay type: functional
[10] = Hemolytic activity against mouse Red blood cells at 100 microg/ml incubated for 1 hr relative to control; assay type: toxicity, cell-based, Erythrocyte; conditions: at 100 µg/mL, read-out: Activity

| SMILES | MIC (Staphylococcus aureus [1]) [µg/mL] | MIC (Enterococcus faecalis) [µg/mL] | MIC (Staphylococcus aureus [2]) [µg/mL] | MIC (Candida albicans) [µg/mL] | MIC (Staphylococcus aureus [3]) [µg/mL] | MIC [4] [µg/mL] | MIC (Escherichia coli) [µg/mL] | MIC (Bacillus subtilis) [µg/mL] | MIC (Enterococcus faecium) [µg/mL] | HC5 [5] [µg/mL] | MIC (Enterococcus gallinarum) [µg/mL] | selectivity ratio [6] | MIC (Staphylococcus aureus [7]) [µg/mL] | MIC (Staphylococcus aureus [8]) [µg/mL] | MIC (Staphylococcus aureus [9]) [µg/mL] | hemolysis at 1 h, 100 microg/ml [10] [%] |
| --- | --- | --- | --- | --- | --- | --- | --- | --- | --- | --- | --- | --- | --- | --- | --- | --- |
| CC(C)C[C@H]1NC(=O)[C@H](Cc2c(C(c3ccccc3)c3ccccc3)[nH]c3ccccc23)NC(=O)[C@@H](C(C)C)NC(=O)[C@@H]2CSC(N2)[C@H](C(C)C)NC(=O)[C@@H](C(C)C)NC(=O)[C@H](CCCCN)NC1=O | 12.5 (≈ 12.8 µM) | 50 (≈ 51.1 µM) | 25 (≈ 25.6 µM) | 3.13 (≈ 3.2 µM) | 25 (≈ 25.6 µM) | 25 (≈ 25.6 µM) | 3.13 (≈ 3.2 µM) | 12.5 (≈ 12.8 µM) | 50 (≈ 51.1 µM) | 64.74 | 50 (≈ 51.1 µM) | 2.59 | 25 (≈ 25.6 µM) | 3.13 (≈ 3.2 µM) | 25 (≈ 25.6 µM) |  |
| CC(C)C[C@H]1NC(=O)[C@H](Cc2c(C(c3ccccc3)(c3ccccc3)c3ccccc3)[nH]c3ccccc23)NC(=O)[C@@H](C(C)C)NC(=O)[C@@H]2CSC(N2)[C@H](C(C)C)NC(=O)[C@@H](C(C)C)NC(=O)[C@H](CCCCN)NC1=O | 6.25 (≈ 5.93 µM) | 12.5 (≈ 11.9 µM) | 6.25 (≈ 5.93 µM) | 3.13 (≈ 2.97 µM) | 6.25 (≈ 5.93 µM) | 6.25 (≈ 5.93 µM) | 3.13 (≈ 2.97 µM) | 6.25 (≈ 5.93 µM) | 12.5 (≈ 11.9 µM) | 68.73 | 12.5 (≈ 11.9 µM) | 11 | 6.25 (≈ 5.93 µM) | 3.13 (≈ 2.97 µM) | 6.25 (≈ 5.93 µM) |  |
| CC(C)C[C@H]1NC(=O)[C@H](Cc2c(C(c3ccccc3)(c3ccccc3)c3ccccc3)[nH]c3ccccc23)NC(=O)[C@@H](C(C)C)NC(=O)[C@@H]2CSC(N2)[C@H](C(C)C)NC(=O)[C@@H](CCCCN)NC(=O)[C@H](C(C)C)NC1=O | 6.25 (≈ 5.93 µM) | 12.5 (≈ 11.9 µM) | 6.25 (≈ 5.93 µM) | 3.13 (≈ 2.97 µM) | 3.13 (≈ 2.97 µM) | 6.25 (≈ 5.93 µM) | 3.13 (≈ 2.97 µM) | 6.25 (≈ 5.93 µM) | 12.5 (≈ 11.9 µM) | 44.04 | 6.25 (≈ 5.93 µM) | 14.1 | 3.13 (≈ 2.97 µM) | 3.13 (≈ 2.97 µM) | 3.13 (≈ 2.97 µM) | 23 |
| CC(C)C[C@H]1NC(=O)[C@H](Cc2c(C(c3ccccc3)c3ccccc3)[nH]c3ccccc23)NC(=O)[C@@H](C(C)C)NC(=O)[C@@H]2CSC(N2)[C@H](C(C)C)NC(=O)[C@@H](CCCCN)NC(=O)[C@H](C(C)C)NC1=O | 12.5 (≈ 12.8 µM) | 25 (≈ 25.6 µM) | 12.5 (≈ 12.8 µM) | 3.13 (≈ 3.2 µM) | 12.5 (≈ 12.8 µM) | 12.5 (≈ 12.8 µM) | 3.13 (≈ 3.2 µM) | 6.25 (≈ 6.39 µM) | 25 (≈ 25.6 µM) | 43.53 | 25 (≈ 25.6 µM) | 3.48 | 12.5 (≈ 12.8 µM) | 3.13 (≈ 3.2 µM) | 12.5 (≈ 12.8 µM) |  |
| CC(C)[C@@H]1NC(=O)[C@@H](C(C)C)NC(=O)[C@H](C(C)C)NC(=O)[C@@H](CCCCN)NC(=O)[C@H](Cc2c(C(c3ccccc3)c3ccccc3)[nH]c3ccccc23)NC(=O)[C@@H](C(C)C)NC(=O)[C@@H]2CSC1N2 | 12.5 (≈ 13 µM) | 50 (≈ 51.9 µM) | 12.5 (≈ 13 µM) | 3.13 (≈ 3.25 µM) | 12.5 (≈ 13 µM) | 6.25 (≈ 6.48 µM) | 3.13 (≈ 3.25 µM) | 6.25 (≈ 6.48 µM) | 50 (≈ 51.9 µM) | 74.17 | 25 (≈ 25.9 µM) | 5.93 | 12.5 (≈ 13 µM) | 3.13 (≈ 3.25 µM) | 12.5 (≈ 13 µM) |  |
| CC(C)C[C@H]1NC(=O)[C@H](Cc2c(C(c3ccccc3)c3ccccc3)[nH]c3ccccc23)NC(=O)[C@@H](CCCCN)NC(=O)[C@@H]2CSC(N2)[C@H](C(C)C)NC(=O)[C@@H](C(C)C)NC(=O)[C@H](C(C)C)NC1=O | 25 (≈ 25.6 µM) | 25 (≈ 25.6 µM) | 25 (≈ 25.6 µM) | 3.13 (≈ 3.2 µM) | 25 (≈ 25.6 µM) | 25 (≈ 25.6 µM) | 3.13 (≈ 3.2 µM) | 25 (≈ 25.6 µM) | 50 (≈ 51.1 µM) | > 100 | 50 (≈ 51.1 µM) | > 4 | 25 (≈ 25.6 µM) | 3.13 (≈ 3.2 µM) | 25 (≈ 25.6 µM) |  |
| CC(C)C[C@H]1NC(=O)[C@H](Cc2c(C(c3ccccc3)(c3ccccc3)c3ccccc3)[nH]c3ccccc23)NC(=O)[C@@H](C(C)C)NC(=O)[C@@H]2CSC(N2)[C@H](C(C)C)NC(=O)[C@@H](C(C)C)NC(=O)[C@H](C(C)C)NC1=O | > 50 | > 50 | > 50 |  | > 50 | > 50 |  | > 50 | > 50 |  | > 50 |  | > 50 |  | > 50 |  |

— ChEMBL document CHEMBL6103613 (J Med Chem, 2025)
